Measurements as given in patent US8173654B2, “Triazolopyridazine compounds” (Janssen Pharmaceutica N.V., priority 2005, dated 2012).

How the values were obtained:
c-Met [1] = molecular target: T1, c-Met (Homo sapiens, UniProt P08581); assay: Cell based ELISA assay for HGF stimulated c-Met phosphorylation in S114 cells; design: expressed in transfected cells; host or cells: S114 (murine NIH 3T3 derived); conditions: read-out: c-Met Cell ELISA IC-50
Target sequence in this assay (P08581 25-1390): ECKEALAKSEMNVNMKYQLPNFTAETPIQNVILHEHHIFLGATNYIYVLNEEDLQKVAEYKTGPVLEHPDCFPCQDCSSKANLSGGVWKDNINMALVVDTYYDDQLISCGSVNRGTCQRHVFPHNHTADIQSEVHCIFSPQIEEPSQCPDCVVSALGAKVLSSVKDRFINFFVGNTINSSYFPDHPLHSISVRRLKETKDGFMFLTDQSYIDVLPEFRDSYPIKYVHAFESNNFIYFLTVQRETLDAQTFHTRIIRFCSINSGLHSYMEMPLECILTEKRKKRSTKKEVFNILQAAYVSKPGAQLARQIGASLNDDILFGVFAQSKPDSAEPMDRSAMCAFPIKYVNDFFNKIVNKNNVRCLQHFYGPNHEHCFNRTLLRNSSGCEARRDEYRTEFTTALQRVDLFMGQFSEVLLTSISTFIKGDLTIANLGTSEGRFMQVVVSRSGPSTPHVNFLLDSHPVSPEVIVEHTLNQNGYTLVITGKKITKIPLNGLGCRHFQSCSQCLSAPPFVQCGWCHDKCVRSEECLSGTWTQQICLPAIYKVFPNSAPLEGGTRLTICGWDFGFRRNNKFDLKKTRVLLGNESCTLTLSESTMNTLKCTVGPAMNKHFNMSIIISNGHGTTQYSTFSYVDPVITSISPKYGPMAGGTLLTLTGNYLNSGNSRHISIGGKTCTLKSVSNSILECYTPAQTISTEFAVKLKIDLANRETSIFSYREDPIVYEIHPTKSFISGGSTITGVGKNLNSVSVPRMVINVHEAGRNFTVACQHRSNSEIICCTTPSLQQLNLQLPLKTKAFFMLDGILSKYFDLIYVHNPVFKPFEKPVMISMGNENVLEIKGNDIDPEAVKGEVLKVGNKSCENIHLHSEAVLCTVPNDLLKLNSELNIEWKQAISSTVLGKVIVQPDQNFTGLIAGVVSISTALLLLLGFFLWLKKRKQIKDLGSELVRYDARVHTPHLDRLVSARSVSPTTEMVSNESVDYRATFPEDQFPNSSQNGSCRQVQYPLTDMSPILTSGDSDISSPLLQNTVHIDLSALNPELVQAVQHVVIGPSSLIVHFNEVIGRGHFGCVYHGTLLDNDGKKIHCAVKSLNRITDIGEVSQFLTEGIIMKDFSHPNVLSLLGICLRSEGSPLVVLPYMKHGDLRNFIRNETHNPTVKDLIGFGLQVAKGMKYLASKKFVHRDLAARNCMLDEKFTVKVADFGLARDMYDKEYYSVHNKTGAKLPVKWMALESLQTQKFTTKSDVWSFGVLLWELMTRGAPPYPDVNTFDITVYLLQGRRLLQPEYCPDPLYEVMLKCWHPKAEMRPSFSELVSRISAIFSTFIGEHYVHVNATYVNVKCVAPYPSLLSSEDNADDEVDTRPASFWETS

HepG2 cells = assay: HepG2 cellular scatter assay (HGF-induced, RT-CES impedance); format: cell-based; conditions: Homo sapiens, 40 ng/ml HGF
Description: Human Growth Factor (HGF) and its receptor (c-Met) are involved in cellular motility. Indeed HGF was also identified as Scatter Factor (SF), based on its powerful motility effect on certain cell types. Cellular motility is critical for pathological processes of oncologic disease, most importantly, the establishment of metastatic lesions distant from the primary tumor and formation of new blood vessels (angiogenesis). One therapeutic hypothesis is that this movement of cell types may be blunted or eliminated by the use of c-Met kinase inhibitors. (See: Jiang, W. C, Martin, T. A., Parr, C., Davies, G., Matsumoto, K. and Nakamura, T. Critical Reviews in Oncology/Hematology 53 (2005) 35-69. and references cited therein.) It should also be noted that cellular motility, especially with regard to angiogenesis, is important in other disease states.
Cellular scatter was measured with a Real-Time Cell Electronic Sensing system (RT-CES), from ACEA Biosciences Inc. (San Diego, Calif.). The RT-CES system uses specialized RT-ACE microtiter plates (cat:RCD96, ACEA Biosciences Inc.) to non-invasively quantify cellular status in real-time. The interaction of cells with the surface of the plates, which are integrated with microelectronic sensor arrays, leads to the generation of a cell-electrode impedance response. A higher impedance value indicates more cell attachment and thus less cellular scatter.
50 μl of Assay Media (MEM supplemented with 10% FBS, 2 mM L-glutamine, 1.5 g/L sodium bicarbonate, 1 mM sodium pyruvate, and 0.1 mM non-essential amino acids) was added into 96-well RT-ACE plates and recorded for 30 min on the RT-CES. 50 μl of HepG2 cells (cat: HB-8065, ATCC) were added into each well ([…]). The plate was read in RT-CES and incubated for 20-24 hours. After the 20-24 hours incubation, 50 μl of Assay Media containing different concentrations of testing compounds was added into each well and incubated for 1 hour. Finally, 50 μl of Assay Media containing 160 ng/ml of HGF was added into each well (40 ng/ml in 200 μl). The plate was incubated and read in the RT-CES for 20-24 hours, with a record time every 15 minutes. The positive control was HGF without compounds and negative control was no-HGF without compound. All determinations were performed in duplicate wells and IC50 values were calculated using GraphPad Prism software (GraphPad Software; San Diego, Calif.).

c-Met [2] = molecular target: T1, c-Met; assay: Delfia autophosphorylation kinase assay on the c-Met; format: biochemical; design: The purified His6 tagged cytoplasmic domain of c-Met was diluted to a concentration of 500 ng/ml; host or cells: Sf9 insect cells (baculovirus, pFastBacHTa); conditions: His6 tagged cytoplasmic domain of c-Met, 1 μM ATP; read-out: cMet Delfia autophos IC-50
Method in brief: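 Time-resolved fluorescence tracked autophosphorylation of the His6-tagged c-Met cytoplasmic domain, dispensed at 500 ng/ml onto nickel-chelate plates. Reaction buffer held 1 μM ATP, 10 mM MgCl2, vanadate and DTT at pH 8.0, for 1 h at room temperature.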
Target sequence in this assay (P08581 956-1390 limits assumed): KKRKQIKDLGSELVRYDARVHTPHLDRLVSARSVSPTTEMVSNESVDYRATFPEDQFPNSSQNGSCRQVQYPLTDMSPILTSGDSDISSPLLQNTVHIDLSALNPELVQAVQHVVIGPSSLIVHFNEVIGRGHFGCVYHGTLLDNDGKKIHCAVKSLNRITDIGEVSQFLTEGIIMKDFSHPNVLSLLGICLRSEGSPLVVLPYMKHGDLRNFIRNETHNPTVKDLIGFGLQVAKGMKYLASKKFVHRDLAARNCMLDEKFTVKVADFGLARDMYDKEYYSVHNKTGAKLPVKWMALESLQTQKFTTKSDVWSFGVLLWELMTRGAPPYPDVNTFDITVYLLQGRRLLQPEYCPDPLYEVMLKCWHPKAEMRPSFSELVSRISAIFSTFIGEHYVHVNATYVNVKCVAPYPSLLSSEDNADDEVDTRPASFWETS

[3] = test system: U87MG glioblastoma tumors; assay: U87MG glioblastoma tumor xenograft model (tumor growth inhibition); format: in vivo, athymic nude mice; conditions: for decrease of mean tumor volume compared to vehicle-treated group: Day 21, p<0.001
Description: The U87MG glioblsatoma cell line (Piedmont Research Center LLC) expresses the c-Met receptor and responds to Human Growth Factor (HGF). This study investigated whether treatment with an inhibitor of c-Met is efficacious against the U87MG glioblastoma tumor xenograft model. This study utilized a tumor growth inhibition (TGI) assay to test per os (p.o.) compound monotherapy in groups of fifteen nude mice. A control group was treated with vehicle, 20% Hydroxypropyl Beta-Cyclodextrin (HPBCD). All treatments began on Day 1 (D1) in mice bearing established subcutaneous (s.c.) U87MG tumors.
Female athymic nude mice (Harlan) were 10-11 weeks old with a BW range of 18.1-25.0 g on D1 of the study. The animals were fed ad libitum water (reverse osmosis, 1 ppm Cl) and NIH 31 Modified and Irradiated Lab Diet® consisting of 18.0% crude protein, 5.0% crude fat, and 5.0% crude fiber. The mice were housed on irradiated ALPHA-dri® Bed-o-cobs® Laboratory Animal Bedding in static microisolators on a 12-hour light cycle at 21-22° C. (70-72° F.) and 40-60% humidity. All animals were housed in a Laboratory Animal Medicine facility that is fully accredited by the American Association for Assessment and Accreditation of Laboratory Animal Care (AAALAC). All procedures involving animals were conducted in compliance with the NIH Guide for the Care and Use of Laboratory Animals and all protocols were approved by an Internal Animal Care and Use Committee (IACUC).
Xenografts were initiated from U87MG human glioblastoma tumor fragments maintained by serial transplantation in athymic nude mice. Each test mouse received a subcutaneous U87MG tumor fragment (1 mm^3) implanted in the right flank, and the growth of tumors was monitored as the average size approached 200 mm^3. Twelve days later, on Day 1 of the study, the animals were sorted into 4 groups (n=12-15 mice/group) with individual tumor volumes ranging from 172-352 mm^3 and group mean tumor volumes of 216 mm^3. Tumor volume was calculated using the formula:
[formula] where w=width and l=length in mm of the tumor. Tumor weight may be estimated with the assumption that 1 mg is equivalent to 1 mm^3 of tumor volume. Drug Treatment
Dosing solutions of compounds of the present invention were prepared fresh weekly in a vehicle consisting of 20% Hydroxypropyl Beta-Cyclodextrin (HPBCD) in water. In all groups, the dosing volume of 0.2 mL/20-g mouse was scaled to the body weight of each animal. Doses were given to allow for the HCl salt form of the compound.
TGI was calculated from the difference between the median tumor volumes of vehicle-treated and drug-treated mice, expressed as a percentage of the median tumor volume of the vehicle-treated control group, by the following relation:
The MTV (n) is defined as the median tumor volume (MTV) for the number of animals, n, remaining in the study on that day.
Animals were weighed daily for the first five days of the study and then twice weekly. The mice were examined frequently for overt signs of any adverse, drug-related side effects, and clinical signs of toxicity were recorded when observed. Acceptable toxicity is defined as a group mean body-weight (BW) loss of less than 20% during the study, and not more than one treatment-related (TR) death among ten animals. A death is classified as TR if it is attributable to treatment side effects as evidenced by clinical signs and/or necropsy, or due to unknown causes during the dosing period or within 10 days of the last dose. A death is classified as non treatment-related (NTR) if there is no evidence that the death was related to drug side effects. A death is classified as non treatment-related unknown (NTRu) if the cause of death is unknown.
The Mann-Whitney U-test, for analysis of medians, was used to determine the statistical significance of the difference between the MTVs. Prism 3.03 (GraphPad) for Windows was used for the statistical analyses and graphic presentations. […]

Compound | IC50 (c-Met [1]) [nM] | IC50 (HepG2 cells) [nM] | IC50 (c-Met [2]) [nM] | decrease of mean tumor volume compared to vehicle-treated group ([3]; 30 mg/kg p.o. b.i.d., 21 consecutive days) [%] | decrease of mean tumor volume compared to vehicle-treated group ([3]; 50 mg/kg p.o. b.i.d., 21 consecutive days) [%] | tumor regression ([3]; 50 mg/kg p.o. b.i.d., 21 days) | inhibition of growth of U87MG tumors ([3]; 30 and 50 mg/kg p.o. b.i.d., 21 consecutive days)
Cn1cc(-c2ccc3nnc(Cc4ccc5ncccc5c4)n3n2)cn1 [Example 1, 6-[6-(1-Methyl-1H-pyrazol-4-yl)-[1,2,4]triazolo[4,3-b]pyridazin-3-ylmethyl]-quinoline] | – | – | – | 66 | 97 | Tumor regression was observed | statistically significant, dose-dependent inhibition of growth
CS(=O)(=O)N1CCN(C(=O)c2ccc(-c3ccc4nnc(C(F)(F)c5ccc6ncccc6c5)n4n3)s2)CC1 [Example 98, {5-[3-(Difluoro-quinolin-6-yl-methyl)-[1,2,4]triazolo[4,3-b]pyridazin-6-yl]-thiophen-2-yl}-(4-methanesulfonyl-piperazin-1-yl)-methanone] | 4 | 64 | 2 | – | – | – | –
CS(=O)(=O)n1cc(-c2ccc3nnc(C(F)(F)c4ccc5ncccc5c4)n3n2)cn1 [Example 99, 6-{Difluoro-[6-(1-methanesulfonyl-1H-pyrazol-4-yl)-[1,2,4]triazolo[4,3-b]pyridazin-3-yl]-methyl}-quinoline] | 34 | 1100 | 2 | – | – | – | –
FC(F)(c1ccc2ncccc2c1)c1nnc2ccc(-c3ccncc3)nn12 [Example 60, 6-[Difluoro-(6-pyridin-4-yl-[1,2,4]triazolo[4,3-b]pyridazin-3-yl)-methyl]-quinoline] | 12 | 287 | 1 | – | – | – | –
Cc1cc(-c2ccc3nnc(C(F)(F)c4ccc5ncccc5c4)n3n2)ccn1 [Example 86, 6-{Difluoro-[6-(2-methyl-pyridin-4-yl)-[1,2,4]triazolo[4,3-b]pyridazin-3-yl]-methyl}-quinoline] | 34 | 715 | 2.8 | – | – | – | –
CC(C)CCNC(=O)c1ccc(-c2ccc3nnc(Cc4ccc5c(c4)CCO5)n3n2)s1 [Example 53, 5-[3-(2,3-Dihydro-benzofuran-5-ylmethyl)-[1,2,4]triazolo[4,3-b]pyridazin-6-yl]-thiophene-2-carboxylic acid (3-methyl-butyl)-amide] | 35 | – | 4 | – | – | – | –
Cc1ccsc1-c1ccc2nnc(Cc3ccc4c(c3)CCO4)n2n1 [Example 23, 3-(2,3-Dihydro-benzofuran-5-ylmethyl)-6-(3-methyl-thiophen-2-yl)-[1,2,4]triazolo[4,3-b]pyridazine] | 113 | – | 41 | – | – | – | –

The next lines start with results.

IC50 (c-Met [1]) [nM] | IC50 (HepG2 cells) [nM] | IC50 (c-Met [2]) [nM] | Compound | decrease of mean tumor volume compared to vehicle-treated group ([3]; 30 mg/kg p.o. b.i.d., 21 consecutive days) [%] | decrease of mean tumor volume compared to vehicle-treated group ([3]; 50 mg/kg p.o. b.i.d., 21 consecutive days) [%] | tumor regression ([3]; 50 mg/kg p.o. b.i.d., 21 days) | inhibition of growth of U87MG tumors ([3]; 30 and 50 mg/kg p.o. b.i.d., 21 consecutive days)
3 | 1160 | 3 | CN1CCN(C(=O)c2ccc(-c3ccc4nnc(C(F)(F)c5ccc6ncccc6c5)n4n3)s2)CC1 [Example 97, {5-[3-(Difluoro-quinolin-6-yl-methyl)-[1,2,4]triazolo[4,3-b]pyridazin-6-yl]thiophen-2-yl}-(4-methyl-piperazin-1-yl)-methanone] | – | – | – | –
0.5 | – | 0.1 | [O-][n+]1cccc2cc(Cc3nnc4ccc(-c5cn[nH]c5)nn34)ccc21 [Example 73, 6-[6-(1H-Pyrazol-4-yl)-[1,2,4]triazolo[4,3-b]pyridazin-3-ylmethyl]-quinolin-1-ol] | – | – | – | –
40 | – | 3 | O=C(NCCN1CCOCC1)c1ccc(-c2ccc3nnc(Cc4ccc5c(c4)CCO5)n3n2)s1 [Example 52, 5-[3-(2,3-Dihydro-benzofuran-5-ylmethyl)-[1,2,4]triazolo[4,3-b]pyridazin-6-yl]-thiophene-2-carboxylic acid (2-morpholin-4-yl-ethyl)-amide] | – | – | – | –
37 | 543 | 2 | CCCc1ncc(-c2ccc3nnc(C(F)(F)c4ccc5ncccc5c4)n3n2)s1 [Example 104, 6-{Difluoro-[6-(2-propyl-thiazol-5-yl)-[1,2,4]triazolo[4,3-b]pyridazin-3-yl]-methyl}-quinoline] | – | – | – | –
10 | – | 4 | Cc1nc2ccc(Cc3nnc4ccc(-c5cccnc5)nn34)cc2s1 [Example 92, 3-(2-Methyl-benzothiazol-6-ylmethyl)-6-pyridin-3-yl-[1,2,4]triazolo[4,3-b]pyridazine] | – | – | – | –
